Results on 2 substances are retold here after patent US7479478B2, “Human parathyroid hormone modifications, preparation and use” (The General Hospital Corporation, priority 1998, dated 2009).

One assay has as its target T1, rat PTH-1 receptors (Rattus norvegicus, UniProt P25961).
T1 construct: expressed in transfected cells
T1 sequence (P25961 27-591): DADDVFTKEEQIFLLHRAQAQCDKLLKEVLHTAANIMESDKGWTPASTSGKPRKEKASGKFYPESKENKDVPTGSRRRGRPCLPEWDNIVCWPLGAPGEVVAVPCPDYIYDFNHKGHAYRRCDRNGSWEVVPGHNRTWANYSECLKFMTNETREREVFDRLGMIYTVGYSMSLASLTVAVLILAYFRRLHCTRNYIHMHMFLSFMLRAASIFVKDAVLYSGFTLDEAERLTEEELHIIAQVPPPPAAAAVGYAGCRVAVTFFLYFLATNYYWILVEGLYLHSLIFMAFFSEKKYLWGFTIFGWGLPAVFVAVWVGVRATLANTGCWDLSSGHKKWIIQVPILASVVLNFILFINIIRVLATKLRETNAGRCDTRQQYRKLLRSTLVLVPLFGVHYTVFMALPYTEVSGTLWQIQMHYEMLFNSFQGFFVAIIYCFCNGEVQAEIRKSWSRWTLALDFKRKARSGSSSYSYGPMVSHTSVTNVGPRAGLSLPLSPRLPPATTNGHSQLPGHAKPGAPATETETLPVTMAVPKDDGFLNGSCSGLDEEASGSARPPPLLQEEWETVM
The assay can be described thus: AC activation (cAMP) in EW5 cells. The assay is classed as cell-based. The method, then:
HKRK B7 or EW5 cells (32), subclones of LLC-PKI renal epithelial cells that stably express human or rat PTH-1 receptors (950,000 and 320,000 receptors/cell, respectively), were maintained under 5% CO2 in air in Dulbecco's modified essential medium containing 7% fetal bovine serum (FBS) and 1% penicillin/streptomycin (GIBCO-BRL, Grand Island, N.Y.). HEK-293 and COS-7 cells were cultured similarly, except that 10% FBS was used in the medium. Cells were seeded into 24-well plates two days before assay at a density of 2-2.5×10^5 cells/well (HKRK B7 or EW 5 cells) or 6×10^5 cells/well (in 6-well plates) (HEK-293 cells). […]
Intracellular cAMP accumulation, PLC activation and PTHR binding affinity were measured as previously reported (Bringhurst, F. R., et al., Endocrinology 132(5):2090-2098 (1993); Guo, J., et al., Endocrinology 136(9):3884-3891 (1995)). Intracellular cAMP accumulation was measured in extracts of cells that were exposed to human PTH peptides in the presence of isobutylmethyxanthine (IBMX, 1 mM) at 37° C. for 15 min. After terminating the reactions by aspiration and freezing in liquid nitrogen, cell monolayers were extracted with 50 mM HCl and cAMP was measured using a radioimmunoassay kit (Dupont-New England Nuclear, Boston, Mass.). […]

The target in another assay is T2, human PTH-1 receptors (Homo sapiens, UniProt Q03431).
T2 construct: expressed in transfected cells
T2 sequence (Q03431 27-593): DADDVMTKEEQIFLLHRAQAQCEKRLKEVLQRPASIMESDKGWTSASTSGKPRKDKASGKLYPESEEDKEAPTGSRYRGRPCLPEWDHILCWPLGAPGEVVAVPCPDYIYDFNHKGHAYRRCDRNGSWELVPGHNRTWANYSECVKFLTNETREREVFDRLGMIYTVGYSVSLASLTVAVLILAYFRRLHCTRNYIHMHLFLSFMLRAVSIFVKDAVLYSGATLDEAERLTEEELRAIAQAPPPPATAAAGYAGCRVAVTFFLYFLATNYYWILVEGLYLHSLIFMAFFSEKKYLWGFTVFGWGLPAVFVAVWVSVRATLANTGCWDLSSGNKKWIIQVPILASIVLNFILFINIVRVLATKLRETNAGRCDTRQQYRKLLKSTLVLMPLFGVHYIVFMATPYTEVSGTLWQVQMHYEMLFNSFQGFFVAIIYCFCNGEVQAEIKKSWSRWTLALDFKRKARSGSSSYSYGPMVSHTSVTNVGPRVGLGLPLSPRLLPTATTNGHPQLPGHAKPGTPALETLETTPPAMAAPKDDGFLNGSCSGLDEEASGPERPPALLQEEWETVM
Nature of the assay: Intracellular cAMP accumulation (adenylyl cyclase, AC, activation) in HKRK B7 cells. The assay is classed as cell-based. The settings on record: HKRK B7 cells; for AC activation (cAMP accumulation), result in words: compared with hPTH-(1-34) or parent peptide. The method, then: HKRK B7 or EW5 cells (32), subclones of LLC-PKI renal epithelial cells that stably express human or rat PTH-1 receptors (950,000 and 320,000 receptors/cell, respectively), were maintained under 5% CO2 in air in Dulbecco's modified essential medium containing 7% fetal bovine serum (FBS) and 1% penicillin/streptomycin (GIBCO-BRL, Grand Island, N.Y.). HEK-293 and COS-7 cells were cultured similarly, except that 10% FBS was used in the medium. Cells were seeded into 24-well plates two days before assay at a density of 2-2.5×10^5 cells/well (HKRK B7 or EW 5 cells) or 6×10^5 cells/well (in 6-well plates) (HEK-293 cells). In experiments involving HEK-293 cells, DNA transfections were performed 24 hr after plating and inositol radiolabel was added 24 hr thereafter (see below). COS-7 cell transfections were performed as previously described (Gardella, T. J., et al., Endocrinology 132(5):2024-2030 (1993)) Intracellular cAMP accumulation, PLC activation and PTHR binding affinity were measured as previously reported (Bringhurst, F. R., et al., Endocrinology 132(5):2090-2098 (1993); Guo, J., et al., Endocrinology 136(9):3884-3891 (1995)). Intracellular cAMP accumulation was measured in extracts of cells that were exposed to human PTH peptides in the presence of isobutylmethyxanthine (IBMX, 1 mM) at 37° C. for 15 min. After terminating the reactions by aspiration and freezing in liquid nitrogen, cell monolayers were extracted with 50 mM HCl and cAMP was measured using a radioimmunoassay kit (Dupont-New England Nuclear, Boston, Mass.).

No end group written: not given here.

With “GVSEIQLMHNLGKHLNSMRRVEWLRKKL [[Gly^1,Arg^19]hPTH-(1-28)]”, the “fold impairment of EC50 for AC at the rat PTH-1 receptor relative to hPTH-(1-34)” value with rat PTH-1 receptors is recorded as “about 6 fold”. For the same substance, in the assay with human PTH-1 receptors, the “AC activation (cAMP accumulation), result in words” value is “indistinguishable from that of hPTH-(1-34) and equivalent to that by hPTH(1-34) and full”.

As for “SVSEIQLMHNLGKHLNSMERVEWLRKKL-NH2 [hPTH-(1-28)]”, at rat PTH-1 receptors (compared with human PTH-1 receptor), the “signaling (AC) via rat PTH-1 receptors, result in words” value is recorded as “more severely impaired”. Besides, at human PTH-1 receptors, the response was half-maximal at 1 nM (EC50) and the “AC activation (cAMP accumulation), result in words” value is “as effectively as did hPTH-(1-34)”.
